From the NIST ThermoML archive (doi:10.1016/j.jct.2011.01.013)

Test: mn = molality of the nth substance listed, in mol/kg
Settings: 298.15 K, 101 kPa, Liquid; for viscosity: Capillary tube (Ostwald / Ubbelohde) method; for speed of sound: Sing-around technique in a fixed-path interferometer; for mass density: Vibrating tube method

CCCCn1cc[n+](C)c1.[Cl-] [1-butyl-3-methylimidazolium chloride] + O
Settings | mass density [kg/m3] | speed of sound [m/s] | viscosity [mPa·s]
m1 = 0.0123 | 997.21 | 1498.3 | –
m1 = 0.01554 | – | – | 0.8981
m1 = 0.01952 | – | – | 0.9005
m1 = 0.02 | 997.31 | 1499.3 | –
m1 = 0.0252 | – | – | 0.9024
m1 = 0.0279 | 997.41 | 1500.3 | –
m1 = 0.0349 | 997.5 | 1501.2 | –
m1 = 0.03495 | – | – | 0.9062
m1 = 0.0404 | 997.57 | 1501.9 | –
m1 = 0.04454 | – | – | 0.9101
m1 = 0.05402 | – | – | 0.9143
m1 = 0.0624 | 997.85 | 1504.8 | –
m1 = 0.06772 | – | – | 0.9197
m1 = 0.08128 | – | – | 0.9258
m1 = 0.09508 | – | – | 0.9323
m1 = 0.107 | 998.41 | 1510.6 | –
m1 = 0.1132 | – | – | 0.9412
m1 = 0.1175 | 998.54 | 1512 | –
m1 = 0.1296 | 998.69 | 1513.5 | –
m1 = 0.1521 | 998.97 | 1516.5 | –
m1 = 0.1677 | 999.16 | 1518.6 | –
m1 = 0.1852 | 999.38 | 1520.9 | –
m1 = 0.2113 | 999.7 | 1524.3 | –
m1 = 0.236 | 1000.01 | 1527.6 | –
m1 = 0.2591 | 1000.29 | 1530.7 | –
m1 = 0.2718 | 1000.45 | 1532.4 | –

CCCCn1cc[n+](C)c1.COS(=O)(=O)[O-] [1-butyl-3-methylimidazolium methyl sulfate] + O
Settings | mass density [kg/m3] | speed of sound [m/s] | viscosity [mPa·s]
m1 = 0.00791 | – | – | 0.8954
m1 = 0.0096 | 997.41 | 1498 | –
m1 = 0.01626 | – | – | 0.8999
m1 = 0.02449 | – | – | 0.9046
m1 = 0.0289 | 998.13 | 1500.5 | –
m1 = 0.0329 | – | – | 0.9095
m1 = 0.0411 | 998.59 | 1502 | –
m1 = 0.04142 | – | – | 0.9133
m1 = 0.0522 | – | – | 0.9182
m1 = 0.0584 | 999.23 | 1504.2 | –
m1 = 0.06083 | – | – | 0.9236
m1 = 0.07206 | – | – | 0.9287
m1 = 0.0828 | 1000.11 | 1507.2 | –
m1 = 0.08297 | – | – | 0.9354
m1 = 0.09627 | – | – | 0.9428
m1 = 0.1188 | 1001.49 | 1512 | –
m1 = 0.1481 | 1002.58 | 1515.7 | –
m1 = 0.1736 | 1003.51 | 1519 | –
m1 = 0.2021 | 1004.58 | 1522.6 | –
m1 = 0.2252 | 1005.44 | 1525.6 | –

CCCCCCCCOS(=O)(=O)[O-].CCCCn1cc[n+](C)c1 [1-butyl-3-methylimidazolium octyl sulfate] + O
Settings | mass density [kg/m3] | speed of sound [m/s] | viscosity [mPa·s]
m1 = 0.008 | 997.23 | 1498.5 | –
m1 = 0.00921 | – | – | 0.9054
m1 = 0.0148 | 997.38 | 1500.1 | –
m1 = 0.01899 | – | – | 0.9173
m1 = 0.0215 | 997.53 | 1501.6 | –
m1 = 0.02803 | – | – | 0.9278
m1 = 0.0301 | 997.72 | 1503.6 | –
m1 = 0.035 | 997.83 | 1504.7 | –
m1 = 0.03646 | – | – | 0.9388
m1 = 0.0423 | 997.99 | 1506.2 | –
m1 = 0.04596 | – | – | 0.9507
m1 = 0.0492 | 998.14 | 1506.9 | –
m1 = 0.05551 | – | – | 0.9615
m1 = 0.06482 | – | – | 0.9748
m1 = 0.0668 | 998.52 | 1507.5 | –
m1 = 0.07522 | – | – | 0.9873
m1 = 0.08499 | – | – | 0.9986
m1 = 0.0888 | 998.99 | 1508.1 | –
m1 = 0.0981 | – | – | 1.015
m1 = 0.1542 | 1000.35 | 1509.5 | –
m1 = 0.2466 | 1002.19 | 1511.6 | –
m1 = 0.3369 | 1003.92 | 1513.9 | –

CCCCn1cc[n+](C)c1.F[B-](F)(F)F [1-butyl-3-methylimidazolium tetrafluoroborate] + O
Settings | mass density [kg/m3] | speed of sound [m/s] | viscosity [mPa·s]
m1 = 0.00382 | – | – | 0.8922
m1 = 0.01067 | – | – | 0.8943
m1 = 0.0151 | 997.61 | 1497.7 | –
m1 = 0.02196 | – | – | 0.8986
m1 = 0.03489 | – | – | 0.9024
m1 = 0.0355 | 998.36 | 1499.1 | –
m1 = 0.04696 | – | – | 0.9053
m1 = 0.05635 | – | – | 0.9095
m1 = 0.0662 | – | – | 0.9133
m1 = 0.07543 | – | – | 0.9162
m1 = 0.0764 | 999.85 | 1502 | –
m1 = 0.08767 | – | – | 0.9198
m1 = 0.09802 | – | – | 0.9239
m1 = 0.1052 | 1000.89 | 1504 | –
m1 = 0.1284 | 1001.72 | 1505.5 | –
m1 = 0.1538 | 1002.64 | 1507.3 | –
m1 = 0.1803 | 1003.58 | 1509.1 | –
m1 = 0.2059 | 1004.49 | 1510.9 | –
m1 = 0.2269 | 1005.22 | 1512.3 | –
m1 = 0.2505 | 1006.06 | 1513.9 | –

CCCCCCCC[n+]1ccn(C)c1.[Cl-] [1-methyl-3-octylimidazolium chloride] + O
Settings | mass density [kg/m3] | speed of sound [m/s] | viscosity [mPa·s]
m1 = 0.0074 | – | – | 0.8986
m1 = 0.0127 | 997.14 | 1499.2 | –
m1 = 0.01484 | – | – | 0.9052
m1 = 0.017 | 997.17 | 1500 | –
m1 = 0.02425 | – | – | 0.9131
m1 = 0.0272 | 997.24 | 1502 | –
m1 = 0.039 | 997.32 | 1504.4 | –
m1 = 0.04255 | – | – | 0.9281
m1 = 0.0555 | 997.43 | 1507.5 | –
m1 = 0.05607 | – | – | 0.9387
m1 = 0.06607 | – | – | 0.946
m1 = 0.0693 | 997.52 | 1510.1 | –
m1 = 0.07893 | – | – | 0.956
m1 = 0.0892 | 997.65 | 1513.8 | –
m1 = 0.0928 | – | – | 0.968
m1 = 0.1002 | 997.72 | 1515.7 | –
m1 = 0.1061 | – | – | 0.9779
m1 = 0.1179 | 997.83 | 1518.5 | –
m1 = 0.1353 | 997.94 | 1521.5 | –
m1 = 0.1679 | 998.14 | 1526.8 | –
m1 = 0.183 | 998.23 | 1529.5 | –
m1 = 0.1948 | 998.3 | 1531.3 | –

CCCCCCCC[n+]1ccn(C)c1.F[B-](F)(F)F [1-methyl-3-octylimidazolium tetrafluoroborate] + O
Settings | mass density [kg/m3] | speed of sound [m/s] | viscosity [mPa·s]
m1 = 0.00225 | – | – | 0.8929
m1 = 0.0045 | 997.19 | 1497.4 | –
m1 = 0.0058 | 997.23 | 1497.5 | –
m1 = 0.0077 | 997.29 | 1497.8 | –
m1 = 0.00773 | – | – | 0.8974
m1 = 0.01093 | – | – | 0.8997
m1 = 0.0112 | 997.4 | 1498.3 | –
m1 = 0.01518 | – | – | 0.9029
m1 = 0.017 | 997.58 | 1499 | –
m1 = 0.01948 | – | – | 0.9059
m1 = 0.0196 | 997.66 | 1499.4 | –
m1 = 0.0235 | 997.78 | 1499.9 | –
m1 = 0.02476 | – | – | 0.9094
m1 = 0.0264 | 997.87 | 1500.3 | –
m1 = 0.0311 | – | – | 0.914
m1 = 0.0369 | 998.19 | 1501.7 | –
m1 = 0.03923 | – | – | 0.9201
m1 = 0.0428 | 998.37 | 1502.5 | –
m1 = 0.0454 | 998.45 | 1502.9 | –
m1 = 0.04705 | – | – | 0.9255
